Where two headings read alike, the source gives them in different places.
Legend:
[1] = test system: SK-MEL-28 melanoma cells; assay: Cell viability (XTT), SK-MEL-28; type: cell-based, human; settings: Homo sapiens, 48 h
Procedure: (§1) Cell proliferation kit II (Roche Inc.) is based on calorimetric change of the yellow tetrazolium salt XTT in orange formazan dye by the respiratory chain of viable cells (Roehm, N W, et al., J Immunol Methods 142:257-265, 1991). Cells seeded at a concentration of 5000/well in 100 μl medium in a 96-well plate were treated with different drugs in the given concentration. After 24 or 48 h the cells were incubated, according to the manufacturer's protocol, with XTT labelling mixture. After 4 h the formazan dye is quantified using a scanning multiwell spectrophotometer with a 495-nm filter. The absorbance is directly correlated with number of viable cells. The standard absorbance curve was drawn by means of untreated cells seeded at a concentration of from 1000 to 10 000 cells/well with an increasing rate of 1000 cells/well. All standards and experiments were performed in triplicates.
(§2) 5 different types of cell lines were seeded in 96-well plates (medium volume in a well was 100 μl), at a concentration of 10,000 cells/cm^2 in Minimal Essential Medium supplemented with fetal calf serum. When the cells had reached a concentration of 65,000 cells/cm^2, they were treated with different doses of podophyllotoxin and deoxypodophyllotoxin for 48 h. Cell viability was then assayed (see above). […]

[2] = test system: BE melanoma cells; assay: Cell viability (XTT), BE; type: cell-based; settings: Homo sapiens, 48 h
Procedure: as §1, §2

[3] = test system: FM55 melanoma cells; assay: Cell viability (XTT), FM55; type: cell-based, human; settings: Homo sapiens
Procedure: as §1
5 different types of cell lines were seeded in 96-well plates (medium volume in a well was 100 μl), at a concentration of 10,000 cells/cm^2 in Minimal Essential Medium supplemented with fetal calf serum. When the cells had reached a concentration of 65,000 cells/cm^2, they were treated with different doses of podophyllotoxin and deoxypodophyllotoxin for 48 h. Cell viability was then assayed (see above). IC50 values for each inhibitor and cell line, calculated as the concentration, resulting in a 50% decrease in cell survival, are shown below. The results are based on 4 different experiments.
FM55 melanoma cells were cultured in the same way as described in Experiment 3 and were treated with different doses of podophyllotoxin analogues as described in Experiment 3.

[4] = test system: PC-3 prostate cancer cells; assay: Cell viability (XTT), PC-3; type: cell-based; settings: Homo sapiens, 48 h
Procedure: as §1, §2

[5] = test system: K562/Vcr30 chronic myeloid leukemia cells (cytostatic-resistant); assay: Viability of leukemia cells, K562/Vcr30; type: cell-based, human; settings: Homo sapiens; K562/Vcr30, 72 h; read-out: IC50 for viability of leukemia cell lines
Procedure: (§3) The human chronic myeloid leukemia K562/S and K562/Vcr30 lines and the acute myeloid leukemia cell lines HL60/0 and HL60/Nov were obtained from ATCC. The K562/S and HL60/0 are wild type (non-resistant) cells, whereas K562/Vcr30 and HL60/Nov are cytostatic-resistant sublines. All leukemia cell lines were cultured in RPMI 1640 medium supplemented with 10% fetal bovine serum and with 2 mM glutamine, 1% benzyl-penicillin and streptomycin. The cells were grown in tissue culture flasks maintained at 95% air/5% CO2 atmosphere at 37° C. in a humidified incubator. For the experiments 25,000 cells were cultured in 60-mm plastic dishes or 96-well plastic plates. The experiments on leukemia cells were performed in collaboration with Associate professor Sigurd Vitols, Department of Pharmacology, Karolinska Hospital (Stockholm, Sweden).
as §1
(§4) The leukemia cell lines K562/S, K562/Vcr 30, HL60/0 and HL60/Nov were proven to express the IGF-1R. This was assayed by Western blotting analysis, as described in Methods and Experiment 1 and 2. The 4 leukemia cell lines were seeded in 96-well plates (medium volume in a well was 100 μl), in RPMI40 medium supplemented with fetal calf serum. After 24 h podophyllotoxin, deoxypodophyllotoxin and other derivatives were added at different concentrations for 72 h. Cell viability was then assayed (see above). IC50 values for each inhibitor and cell lines are shown below (Table 5). The results are based on 3 different experiments.

[6] = test system: HL60 acute myeloid leukemia cells; assay: Viability of leukemia cells, HL60; type: cell-based, human; settings: Homo sapiens, HL-60; HL60, 72 h; read-out: IC50 for viability of leukemia cell lines
Procedure: as §3, §1, §4

[7] = test system: HL60/Nov acute myeloid leukemia cells (cytostatic-resistant); assay: Viability of leukemia cells, HL60/Nov; type: cell-based, human; settings: Homo sapiens, HL-60, 72 h, read-out: IC50 for viability of leukemia cell lines
Procedure: as §3, §1, §4

[8] = Water solubility; type: physicochemical
[9] = biological target: insulin receptor tyrosine kinase (Homo sapiens, UniProt P06213); assay: Interference with insulin receptor tyrosine kinase; type: cell-based
[10] = biological target: receptor of epidermal growth factor (Homo sapiens, UniProt P00533); assay: Tyrosine phosphorylation of epidermal growth factor receptor; type: cell-based
[11] = test system: receptor of platelet-derived growth factor; assay: Tyrosine phosphorylation of platelet-derived growth factor receptor; type: cell-based
[12] = test system: rats; settings: cited from earlier work

Chain of insulin receptor tyrosine kinase (P06213 28-1382): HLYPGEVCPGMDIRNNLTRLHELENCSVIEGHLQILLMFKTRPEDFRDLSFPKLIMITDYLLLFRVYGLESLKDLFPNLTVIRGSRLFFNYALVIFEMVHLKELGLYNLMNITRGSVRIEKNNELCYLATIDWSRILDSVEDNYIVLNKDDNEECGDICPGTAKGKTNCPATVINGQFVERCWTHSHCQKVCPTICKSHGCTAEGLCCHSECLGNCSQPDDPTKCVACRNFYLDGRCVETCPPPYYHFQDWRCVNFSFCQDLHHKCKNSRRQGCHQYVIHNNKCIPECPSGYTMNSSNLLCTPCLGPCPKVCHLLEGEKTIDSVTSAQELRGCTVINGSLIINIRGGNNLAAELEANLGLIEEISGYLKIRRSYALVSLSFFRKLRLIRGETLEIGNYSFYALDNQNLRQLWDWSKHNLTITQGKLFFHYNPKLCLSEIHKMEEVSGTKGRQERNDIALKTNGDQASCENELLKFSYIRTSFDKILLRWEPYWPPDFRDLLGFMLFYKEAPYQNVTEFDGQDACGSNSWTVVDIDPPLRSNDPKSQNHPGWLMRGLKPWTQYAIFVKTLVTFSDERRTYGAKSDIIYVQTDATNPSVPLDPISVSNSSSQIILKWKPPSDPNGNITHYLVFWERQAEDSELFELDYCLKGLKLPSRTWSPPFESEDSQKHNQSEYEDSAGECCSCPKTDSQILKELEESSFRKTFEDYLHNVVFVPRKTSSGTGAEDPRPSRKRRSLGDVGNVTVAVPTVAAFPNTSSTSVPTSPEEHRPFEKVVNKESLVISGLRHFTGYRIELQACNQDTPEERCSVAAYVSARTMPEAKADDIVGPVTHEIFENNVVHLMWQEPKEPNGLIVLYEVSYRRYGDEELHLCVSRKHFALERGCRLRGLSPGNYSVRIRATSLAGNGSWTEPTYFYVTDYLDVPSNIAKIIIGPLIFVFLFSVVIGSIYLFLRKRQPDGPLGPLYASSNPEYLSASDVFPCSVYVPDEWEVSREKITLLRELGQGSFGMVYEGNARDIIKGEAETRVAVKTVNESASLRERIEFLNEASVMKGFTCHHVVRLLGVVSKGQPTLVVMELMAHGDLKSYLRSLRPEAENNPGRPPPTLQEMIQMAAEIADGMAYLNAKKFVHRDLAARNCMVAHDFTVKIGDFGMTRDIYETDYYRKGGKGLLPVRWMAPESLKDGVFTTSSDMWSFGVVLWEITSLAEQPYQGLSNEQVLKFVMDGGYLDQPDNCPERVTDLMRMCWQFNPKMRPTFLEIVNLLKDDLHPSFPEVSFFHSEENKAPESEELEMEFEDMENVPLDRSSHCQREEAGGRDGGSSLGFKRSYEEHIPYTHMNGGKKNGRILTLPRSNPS
Chain of receptor of epidermal growth factor (P00533 25-1210): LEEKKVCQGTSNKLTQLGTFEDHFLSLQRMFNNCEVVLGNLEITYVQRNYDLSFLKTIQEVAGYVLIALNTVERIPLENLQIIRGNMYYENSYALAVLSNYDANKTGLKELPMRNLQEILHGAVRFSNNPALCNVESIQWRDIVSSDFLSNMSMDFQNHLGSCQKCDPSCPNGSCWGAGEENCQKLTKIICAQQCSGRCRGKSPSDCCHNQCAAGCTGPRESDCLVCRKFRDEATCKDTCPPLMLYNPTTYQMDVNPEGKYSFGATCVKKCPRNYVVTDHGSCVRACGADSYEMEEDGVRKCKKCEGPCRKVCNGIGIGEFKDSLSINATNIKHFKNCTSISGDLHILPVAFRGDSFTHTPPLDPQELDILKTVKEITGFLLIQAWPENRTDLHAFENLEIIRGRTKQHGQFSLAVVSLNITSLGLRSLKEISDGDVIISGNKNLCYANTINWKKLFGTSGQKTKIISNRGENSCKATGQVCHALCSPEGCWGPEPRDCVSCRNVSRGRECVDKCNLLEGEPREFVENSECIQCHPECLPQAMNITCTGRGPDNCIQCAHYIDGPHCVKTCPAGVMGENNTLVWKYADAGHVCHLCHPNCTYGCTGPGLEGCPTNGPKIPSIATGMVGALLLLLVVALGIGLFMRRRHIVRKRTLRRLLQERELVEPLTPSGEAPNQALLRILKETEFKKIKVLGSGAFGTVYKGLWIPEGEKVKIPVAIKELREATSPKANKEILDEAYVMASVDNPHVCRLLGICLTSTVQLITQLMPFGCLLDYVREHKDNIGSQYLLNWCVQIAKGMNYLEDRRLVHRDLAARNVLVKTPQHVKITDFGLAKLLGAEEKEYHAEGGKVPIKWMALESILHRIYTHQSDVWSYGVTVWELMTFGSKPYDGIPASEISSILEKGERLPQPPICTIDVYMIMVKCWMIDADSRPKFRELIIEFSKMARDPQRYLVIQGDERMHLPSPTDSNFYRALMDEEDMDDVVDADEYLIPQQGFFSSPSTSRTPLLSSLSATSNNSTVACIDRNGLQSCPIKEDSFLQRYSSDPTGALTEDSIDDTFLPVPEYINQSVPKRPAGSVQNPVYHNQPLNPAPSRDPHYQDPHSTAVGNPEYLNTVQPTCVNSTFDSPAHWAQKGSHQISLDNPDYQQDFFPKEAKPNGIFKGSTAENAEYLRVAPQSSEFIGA

With `COc1cc([C@@H]2c3cc4c(cc3[C@H](O)[C@H]3COC(=O)[C@H]23)OCO4)cc(OC)c1OC` [Podophyllotoxin, podophyllotoxin] the IC50 [1] was 50 nM, the IC50 [2] was 50 nM and the IC50 ([3]; FM55, Experiment 4 (Table 4), read-out: IC50 for viability of FM55 cells) was 50 nM. It also gave an IC50 ([3]; FM55, melanoma, 48 h (Table 3), read-out: IC50 for cell viability) of 40 nM, an IC50 [4] of 60 nM and an IC50 [5] of 7 nM. It also gave an IC50 [6] of 3 nM, an IC50 [7] of 2 nM and a water solubility [8] of 100 to 200 µM. The “interference with the insulin receptor tyrosine kinase” value [9] was “do not interfere”, the “interference with tyrosine phosphorylation of the receptor of epidermal growth factor” value [10] was “Neither do they interfere” and the “interference with tyrosine phosphorylation of the receptor of platelet-derived growth factor” value [11] was “Neither do they interfere”. The LD50 in rats [12] was 14 mg/kg.

Reference: patent publication US7709526B2, “Use of cyclolignans and new cyclolignans” (Biovitrum AB, priority 2001, dated 2010)
